Test results: patent US8598202B2, “Aryl-hydroxyethylamino-pyrimidines and triazines as modulators of fatty acid amide hydrolase” (Janssen Pharmaceutica NV, priority 2008, dated 2013)
pIC50: −log10 of the molar value. Where a name gives a salt, the structure may show the parent alone. Read-outs that look alike come from different tables or passages of the source.

Experiments:
[1] = target: T1, Rat FAAH-1 (Rattus norvegicus, UniProt P97612); test: Assay Method 2: rat FAAH-1 assay, 3H-anandamide hydrolysis in homogenate of SK-N-MC cells transfected with rat FAAH
T1 sequence (P97612 1-579): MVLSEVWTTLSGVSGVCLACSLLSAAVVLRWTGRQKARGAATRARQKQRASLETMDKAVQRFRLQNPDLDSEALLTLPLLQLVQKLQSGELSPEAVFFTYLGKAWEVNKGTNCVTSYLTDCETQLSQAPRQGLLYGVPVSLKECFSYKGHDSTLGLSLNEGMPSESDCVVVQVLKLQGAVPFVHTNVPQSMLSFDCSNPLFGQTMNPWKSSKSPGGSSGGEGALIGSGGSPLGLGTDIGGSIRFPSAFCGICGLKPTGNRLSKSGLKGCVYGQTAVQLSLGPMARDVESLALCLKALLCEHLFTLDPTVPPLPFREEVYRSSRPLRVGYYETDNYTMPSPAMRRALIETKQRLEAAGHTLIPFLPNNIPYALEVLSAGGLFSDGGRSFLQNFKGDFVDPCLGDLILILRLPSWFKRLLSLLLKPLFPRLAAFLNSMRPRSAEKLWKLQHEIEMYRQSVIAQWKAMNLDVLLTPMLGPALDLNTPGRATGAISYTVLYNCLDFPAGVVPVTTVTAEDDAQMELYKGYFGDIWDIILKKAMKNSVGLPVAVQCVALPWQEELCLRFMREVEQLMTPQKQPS

[2] = target: T2, FAAH (Homo sapiens, UniProt O00519); test: Assay Method 1: FAAH assay, 3H-anandamide hydrolysis in homogenate of T84 cells or SK-N-MC cells transfected with human FAAH
T2 sequence (O00519 1-579): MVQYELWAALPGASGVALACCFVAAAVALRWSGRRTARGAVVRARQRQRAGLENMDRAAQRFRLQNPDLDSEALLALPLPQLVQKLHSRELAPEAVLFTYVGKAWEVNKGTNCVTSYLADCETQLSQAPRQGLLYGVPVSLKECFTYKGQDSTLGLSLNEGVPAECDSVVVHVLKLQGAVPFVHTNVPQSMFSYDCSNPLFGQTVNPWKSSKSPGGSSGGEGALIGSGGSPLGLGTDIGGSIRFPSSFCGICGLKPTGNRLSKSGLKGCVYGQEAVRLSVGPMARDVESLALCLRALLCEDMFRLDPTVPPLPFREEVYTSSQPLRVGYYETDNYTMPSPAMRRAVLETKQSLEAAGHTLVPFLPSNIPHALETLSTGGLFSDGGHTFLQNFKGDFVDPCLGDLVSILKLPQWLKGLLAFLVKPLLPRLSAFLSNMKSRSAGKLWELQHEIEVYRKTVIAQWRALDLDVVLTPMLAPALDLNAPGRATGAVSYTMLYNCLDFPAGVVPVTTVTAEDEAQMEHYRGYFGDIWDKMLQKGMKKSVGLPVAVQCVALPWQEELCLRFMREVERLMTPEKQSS

[3] = read-out: Assay 2 IC50, Table 2, Comparative Examples, rat FAAH-1
[4] = read-out: Assay 1 IC50, Table 2, Comparative Examples, human FAAH

| SMILES | pIC50 [1] | pIC50 [2] | pIC50 [1, 3] | pIC50 [2, 4] |
| --- | --- | --- | --- | --- |
| OC(CNc1cc(-c2ccc(C(F)(F)F)c(Cl)c2)ncn1)c1csc2ccccc12 (stereo not shown) [Example 201, 1-(1-benzothiophen-3-yl)-2-({6-[3-chloro-4-(trifluoromethyl)phenyl]pyrimidin-4-yl}amino)ethanol] | 6.77 | 6.77 |  |  |
| O=[N+]([O-])c1ccc(C(O)CNc2cc(-c3ccc(OC(F)(F)F)cc3)ncn2)cc1 (stereo not shown) [Example 107, 1-(4-Nitrophenyl)-2-[(6-{4-[(trifluoromethyl)oxy]phenyl}pyrimidin-4-yl)amino]ethanol] | 6.49 | 6.62 |  |  |
| OC(CNc1cc(-c2ccc(C(F)(F)F)c(Cl)c2)ncn1)c1ccc(-c2ccccn2)s1 (stereo not shown) [Example 209, 2-({6-[3-Chloro-4-(trifluoromethyl)phenyl]pyrimidin-4-yl}amino)-1-(5-pyridin-2-ylthiophen-2-yl)ethanol] | 7.44 | 7.92 |  |  |
| CC(C)Oc1ccc(-c2cc(NCC(O)c3ccccc3)ncn2)cc1 (stereo not shown) [Example 12, 2-[(6-{4-[(1-Methylethyl)oxy]phenyl}pyrimidin-4-yl)amino]-1-phenylethanol] | 6.42 | 6.73 |  |  |
| O[C@@H](CNc1cc(-c2cc3cc(C(F)(F)F)ccc3s2)ncn1)c1ccccc1 [Example 184, (1R)-1-Phenyl-2-({6-[5-(trifluoromethyl)-1-benzothiophen-2-yl]pyrimidin-4-yl}amino)ethanol trifluoroacetic acid salt] | 6.80 | 7.51 |  |  |
| OC(CNc1cc(-c2ccc(C(F)(F)F)c(Cl)c2)ncn1)c1ccc2c(c1)OCCCO2 (stereo not shown) [Example 204, 2-({6-[3-Chloro-4-(trifluoromethyl)phenyl]pyrimidin-4-yl}amino)-1-(3,4-dihydro-2H-1,5-benzodioxepin-7-yl)ethanol] | 7.09 | 6.26 |  |  |
| COc1ccc(C(O)CNc2cc(-c3ccc(OC(F)(F)F)cc3)ncn2)cc1 (stereo not shown) [Example 111, 1-[4-(Methyloxy)phenyl]-2-[(6-{4-[(trifluoromethyl)oxy]phenyl}-pyrimidin-4-yl)amino]ethanol] | 6.66 | 6.91 |  |  |
| OC(CNc1cc(-c2ccc(C(F)(F)F)c(Cl)c2)ncn1)c1cccc(OC(F)(F)F)c1 (stereo not shown) [Example 130, 2-({6-[3-Chloro-4-(trifluoromethyl)phenyl]pyrimidin-4-yl}amino)-1-[3-(trifluoromethoxy)phenyl]ethanol trifluoroacetic acid salt] | 7.82 | 6.92 |  |  |
| O[C@@H](CNc1cc(-c2cccc(C(F)(F)F)c2)ncn1)c1ccccc1 [Example 105, (1R)-1-Phenyl-2-({6-[3-(trifluoromethyl)phenyl]pyrimidin-4-yl}amino)ethanol] | 6.00 | 6.72 |  |  |
| CCCOc1ccc(-c2cc(NC[C@H](O)c3ccccc3)ncn2)cc1 [Example 44, (1R)-1-Phenyl-2-{[6-(4-propoxyphenyl)pyrimidin-4-yl]amino}ethanol trifluoroacetic acid salt] | 6.22 | 7.30 |  |  |
| O[C@@H](CNc1cc(-c2cc3cc(F)ccc3s2)ncn1)c1ccccc1 [Example 187, (1R)-2-{[6-(5-Fluoro-1-benzothiophen-2-yl)pyrimidin-4-yl}amino]-1-Phenylethanol] | 6.40 | 7.70 |  |  |
| COc1ccc(C(O)CNc2cc(-c3ccc(C(F)(F)F)c(Cl)c3)ncn2)cc1Cl (stereo not shown) [Example 203, 1-(3-Chloro-4-methoxyphenyl)-2-({6-[3-chloro-4-(trifluoromethyl)phenyl]pyrimidin-4-yl}amino)ethanol] | 6.70 | 6.57 |  |  |
| O[C@@H](CNc1cc(-c2cc(F)c(OC(F)F)c(F)c2)ncn1)c1ccccc1 [Example 49, (1R)-2-({6-[4-(Difluoromethoxy)-3,5-difluorophenyl]pyrimidin-4-yl}amino)-1-phenylethanol trifluoroacetic acid salt] | 8.05 | 8.70 |  |  |
| O[C@@H](CNc1cc(-c2ccc(C(F)(F)F)cc2C(F)(F)F)ncn1)c1ccccc1 [Example 152, (1R)-2-({6-[2,4-Bis(trifluoromethyl)phenyl]pyrimidin-4-yl}amino)-1-phenylethanol trifluoroacetic acid salt] | < 5.00 | 5.40 |  |  |
| C[C@@H]([C@H](O)c1ccccc1)N(C)c1cc(-c2ccc(OC(F)(F)F)cc2)ncn1 [Example 121, (1R,2S)-2-[Methyl(6-{4-[(trifluoromethyl)oxy]phenyl}pyrimidin-4-yl)amino]-1-phenylpropan-1-ol] | 5.52 | 6.24 |  |  |
| CC(=O)Nc1cccc(-c2cc(NCC(O)c3ccccc3)ncn2)c1 (stereo not shown) [CE2, N-{3-[6-(2-Hydroxy-2-phenyl-ethylamino)-pyrimidin-4-yl]-phenyl}-acetamide, reference compound] |  |  | < 5.00 | < 5.00 |

The next lines start with the values.

| pIC50 [1] | pIC50 [2] | pIC50 [1, 3] | pIC50 [2, 4] | SMILES |
| --- | --- | --- | --- | --- |
| 5.85 | 5.80 |  |  | N#Cc1cc(-c2cc(NC[C@H](O)c3ccccc3)ncn2)ccc1F [Example 89, 2-Fluoro-5-(6-{[(2R)-2-hydroxy-2-phenylethyl]amino}pyrimidin-4-yl)benzonitrile trifluoroacetic acid salt] |
| 6.49 | 7.68 |  |  | OC(CNc1cc(-c2ccc3ccccc3c2)ncn1)c1ccccc1 (stereo not shown) [Example 235, 2-[(6-Naphthalen-2-ylpyrimidin-4-yl)amino]-1-phenylethanol] |
| 5.89 | 6.46 |  |  | OC(CNc1cc(-c2ccc(Cl)cc2)ncn1)c1ccccc1 (stereo not shown) [Example 2, 2-{[6-(4-Chlorophenyl)pyrimidin-4-yl]amino}-1-phenylethanol] |
| 6.15 | 6.84 |  |  | Cc1ccc(-c2cc(NCC(O)c3ccccc3)ncn2)cc1C (stereo not shown) [Example 223, 2-{[6-(3,4-Dimethylphenyl)pyrimidin-4-yl]amino}-1-phenylethanol] |
| 5.66 | 6.00 |  |  | N#Cc1ccc(-c2cc(NC[C@H](O)c3ccccc3)ncn2)cn1 [Example 77, 5-(6-{[(2R)-2-Hydroxy-2-phenylethyl]amino}pyrimidin-4-yl)pyridine-2-carbonitrile] |
| 7.12 | 7.85 |  |  | COc1ccc(-c2cc(NC[C@H](O)c3ccccc3)ncn2)cc1F [Example 71, (1R)-2-{[6-(3-Fluoro-4-methoxyphenyl)pyrimidin-4-yl]amino}-1-pPhenylethanol] |
| 6.17 | 8.40 |  |  | Cn1ccc2cc(-c3cc(NC[C@H](O)c4ccccc4)ncn3)ccc21 [Example 90, (1R)-2-{[6-(1-Methyl-1H-indol-5-yl)pyrimidin-4-yl]amino}-1-phenylethanol trifluoroacetic acid salt] |
|  |  | < 5.00 | 5.15 | Oc1ccc(-c2cc(NCC(O)c3ccccc3)ncn2)cc1 (stereo not shown) [CE6, 4-[6-(2-Hydroxy-2-phenyl-ethylamino)-pyrimidin-4-yl]-phenol, reference compound] |
| 5.30 | 7.74 |  |  | O[C@@H](CNc1cc(-c2ccc3[nH]ccc3c2)ncn1)c1ccccc1 [Example 85, (1R)-2-{[6-(1H-Indol-5-yl)pyrimidin-4-yl]amino}-1-phenylethanol trifluoroacetic acid salt] |
| 7.68 | 8.52 |  |  | CCOc1ccc(-c2cc(NC[C@H](O)c3ccccc3)ncn2)cc1C [Example 31, (1R)-2-{[6-(4-Ethoxy-3-methylphenyl)pyrimidin-4-yl]amino}-1-Phenylethanol trifluoroacetic acid salt] |
| 7.92 | 7.70 |  |  | CC(C)Oc1ccc(-c2cc(NC[C@H](O)c3ccccc3)ncn2)cc1Cl [Example 19, (1R)-2-[(6-{3-Chloro-4-[(1-methylethyl)oxy]phenyl}pyrimidin-4-yl)amino]-1-phenylethanol] |
| < 5.00 | 5.15 |  |  | Oc1ccc(-c2cc(NCC(O)c3ccccc3)ncn2)cc1 (stereo not shown) [Example 238, 4-[6-(2-Hydroxy-2-phenyl-ethylamino)-pyrimidin-4-yl]-phenol] |
| 7.59 | 7.89 |  |  | Cc1cc(-c2cc(NC[C@H](O)c3ccccc3)ncn2)ccc1OC(C)C [Example 46, (1R)-2-({6-[3-Methyl-4-(1-methylethoxy)phenyl]pyrimidin-4-yl}amino)-1-phenylethanol] |
